Several values for one entry are separate records, joined by “and”; a condition that tells them apart may be missing. Equal values may be shown once.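 GI50 is the concentration that inhibits growth by half. Definition used: TGI = concentration required for complete inhibition of growth.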
What was measured:
Experiment in all cases: inhibition of tumour cell growth, NCI panel, 384-well format
[1] = tested on: HOP-92 NSCLC
[2] = tested on: SN12C renal
[3] = tested on: SNB-75 CNS
[4] = tested on: EKVX NSCLC
[5] = tested on: HT29 colon
[6] = tested on: NCI-H522 lung
[7] = tested on: MALME-3M melanoma
[8] = tested on: IGROV1 ovarian
[9] = tested on: A549 NSCLC
[10] = tested on: 786-0 renal
[11] = tested on: U251 glioblastoma
[12] = tested on: SW-620 colon
[13] = tested on: ACHN renal
[14] = tested on: MCF7 breast
[15] = tested on: NCI-H460 NSCLC
[16] = tested on: OVCAR-8 ovarian
[17] = tested on: NCI-H226 lung
[18] = tested on: SK-OV-3 ovarian
[19] = tested on: T-47D breast
[20] = tested on: MDA-MB-468 breast
[21] = tested on: M14 melanoma
[22] = tested on: UACC-257 melanoma
[23] = tested on: MOLT-4 leukemia
[24] = tested on: HCC-2998 colon
[25] = tested on: BT-549 breast
[26] = tested on: HCT-15 colon
[27] = tested on: MDA-MB-231 breast
[28] = tested on: OVCAR-5 ovarian
[29] = tested on: NCI-H322M lung
[30] = tested on: NCI/ADR-RES ovarian
[31] = tested on: COLO 205 colon
[32] = tested on: NCI-H23 lung
[33] = tested on: TK-10 renal
[34] = tested on: HCT-116 colon
[35] = tested on: CCRF-CEM leukemia
[36] = tested on: HS 578T breast
[37] = tested on: SK-MEL-2 melanoma
[38] = tested on: PC-3 prostate
[39] = tested on: K-562 leukemia
[40] = tested on: OVCAR-4 ovarian
[41] = tested on: RPMI-8226 leukemia
[42] = tested on: SNB-19 CNS
[43] = tested on: SK-MEL-28 melanoma
[44] = tested on: SR leukemia
[45] = tested on: UO-31 renal
[46] = tested on: SF-295 CNS
[47] = tested on: SK-MEL-5 melanoma
[48] = tested on: DU-145 prostate
[49] = tested on: MDA-MB-435 melanoma
[50] = tested on: SF-268 CNS
[51] = tested on: LOX IMVI melanoma
[52] = tested on: KM12 colon
[53] = tested on: HL-60(TB) leukemia
[54] = tested on: HOP-62 NSCLC
[55] = tested on: UACC-62 melanoma
[56] = tested on: SF-539 CNS
[57] = tested on: RXF 393 renal
[58] = tested on: A498 renal
[59] = tested on: OVCAR-3 ovarian
[60] = tested on: CAKI-1 renal

Question: What does the source list for `COc1c(OCCCN2CCOCC2)ccc2c3n(c(=NC(=O)c4cnc(N)nc4)nc12)CCN3`?
Answer: GI50 [1]: 38.5 nM and 35 nM; GI50 [2]: 77.7 nM; TGI [2]: > 50000 nM; GI50 [3]: 7.16 nM and < 13.2 nM; TGI [3]: 31.7 nM and 81.4 nM; GI50 [4]: 22 nM and 56.8 nM; TGI [4]: 289 nM and 1160 nM; GI50 [5]: 22.9 nM; TGI [5]: > 50000 nM; GI50 [6]: 147 nM and 151 nM; TGI [6]: > 50000 nM and 5610 nM; GI50 [7]: 74.5 nM and 22.8 nM; TGI [7]: 396 nM and 204 nM; GI50 [8]: < 5 nM; TGI [8]: 16.5 nM and 29.9 nM; GI50 [9]: 67.7 nM and 54.1 nM; TGI [9]: 849 nM and 908 nM; GI50 [10]: 177 nM and 242 nM; TGI [10]: 14000 nM; GI50 [11]: 314 nM and 510 nM; TGI [11]: > 100000 nM; GI50 [12]: 270 nM and 656 nM; TGI [12]: > 100000 nM; GI50 [13]: 26.6 nM and 108 nM; GI50 [14]: < 5 nM; TGI [14]: > 50000 nM; GI50 [15]: 21.5 nM and 25.9 nM; TGI [15]: > 100000 nM; GI50 [16]: 118 nM and 219 nM; TGI [16]: > 50000 nM; GI50 [17]: 160 nM and 90.8 nM; TGI [17]: > 50000 nM; GI50 [18]: 10.1 nM; TGI [18]: 63.7 nM; GI50 [19]: < 5 nM; TGI [19]: 25.6 nM and < 10.6 nM; GI50 [20]: 15.3 nM and 20.4 nM; TGI [20]: 79.7 nM and 138 nM; GI50 [21]: 190 nM and 158 nM; TGI [21]: > 50000 nM; GI50 [22]: 172 nM and 201 nM; TGI [22]: 10300 nM and 3800 nM; GI50 [23]: 17.3 nM and < 11.8 nM; TGI [23]: 101 nM and 38.5 nM; GI50 [24]: 82.3 nM and 138 nM; TGI [24]: 5440 nM and 766 nM; GI50 [25]: 102 nM and 65.3 nM; TGI [25]: 2870 nM and 648 nM; GI50 [26]: 47.8 nM and 78.3 nM; TGI [26]: > 50000 nM; GI50 [27]: 1960 nM and 219 nM; GI50 [28]: 51.9 nM and 152 nM; TGI [28]: > 100000 nM; GI50 [29]: 93.3 nM and 38.9 nM; GI50 [30]: 1970 nM and 424 nM; TGI [30]: > 100000 nM; GI50 [31]: 26.9 nM and 48.5 nM; TGI [31]: 3670 nM and 3440 nM; GI50 [32]: 472 nM and 248 nM; TGI [32]: > 50000 nM; GI50 [33]: 22.8 nM and 28 nM; TGI [33]: 583 nM and 612 nM; GI50 [34]: 101 nM and 163 nM; TGI [34]: > 50000 nM; GI50 [35]: 18 nM and 38.6 nM; TGI [35]: 5610 nM and 1330 nM; GI50 [36]: 55.7 nM and 30 nM; TGI [36]: 289 nM and 347 nM; GI50 [37]: 224 nM; TGI [37]: 7360 nM; GI50 [38]: 66.8 nM and 34.4 nM; GI50 [39]: 2250 nM; TGI [39]: > 50000 nM; GI50 [40]: 419 nM and 388 nM; TGI [40]: 15700 nM and 3430 nM; GI50 [41]: 129 nM and 122 nM; TGI [41]: 441 nM and 285 nM; GI50 [42]: 572 nM and 1040 nM; TGI [42]: > 100000 nM; GI50 [43]: 71 nM and 56.2 nM; TGI [43]: 2560 nM; GI50 [44]: 215 nM and 198 nM; TGI [44]: 3020 nM and 714 nM; GI50 [45]: 30.5 nM; TGI [45]: 258 nM; GI50 [46]: 177 nM and 135 nM; GI50 [47]: 69.8 nM and 95.1 nM; TGI [47]: 197 nM and 431 nM; GI50 [48]: 128 nM and 164 nM; TGI [48]: > 100000 nM; GI50 [49]: 237 nM; TGI [49]: > 100000 nM; GI50 [50]: 132 nM and 268 nM; TGI [50]: 29100 nM; GI50 [51]: 154 nM; TGI [51]: 1210 nM; GI50 [52]: 436 nM and 316 nM; TGI [52]: > 100000 nM; GI50 [53]: < 5 nM; GI50 [54]: 167 nM and 385 nM; TGI [54]: > 100000 nM; GI50 [55]: 82 nM and 84.4 nM; TGI [55]: 237 nM and 362 nM; GI50 [56]: 103 nM and 96.9 nM; GI50 [57]: 174 nM and 47 nM; TGI [57]: 611 nM and 162 nM; GI50 [58]: 53.9 nM and 68.3 nM; TGI [58]: 146 nM and 470 nM; GI50 [59]: 69 nM and 43.9 nM; TGI [59]: 556 nM and 619 nM; GI50 [60]: 27 nM and 72.4 nM; TGI [60]: 317 nM

Reference: PubChem BioAssay (NCI)
